Results taken from ChEMBL document CHEMBL1201862, “PubChem BioAssay data set” (2004).
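Interpolation was linear, between the two tested concentrations surrounding the appropriate level; five concentrations were tested over 48 hours in 96-well plates. GI50: concentration for 50% inhibition of growth.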 The source made the active and inactive calls. Cut-off read from the data, not from the text of the source: active = GI50 up to about 1.1 µM and inactive = higher.

Columns and labels:
Test in all cases: growth of human tumour cells (NCI), 48 h
[1] = tested on: U-251
[2] = tested on: HCT-116
[3] = tested on: HOP-92
[4] = tested on: T47D
[5] = tested on: OVCAR-4
[6] = tested on: RXF 393
[7] = tested on: BT-549
[8] = tested on: ACHN
[9] = tested on: A549
[10] = tested on: OVCAR-3
[11] = tested on: NCI-H522
[12] = tested on: DU-145
[13] = tested on: SK-MEL-2
[14] = tested on: HCT-15
[15] = tested on: SR
[16] = tested on: MDA-MB-231
[17] = tested on: SK-OV-3
[18] = tested on: NCI-H226
[19] = tested on: LOX IMVI
[20] = tested on: HL-60

SMILES	GI50 [1]	GI50 [2]	GI50 [3]	GI50 [4]	GI50 [5]	GI50 [6]	GI50 [7]	GI50 [8]	GI50 [9]	GI50 [10]	GI50 [11]	GI50 [12]	GI50 [13]	GI50 [14] [µM]	GI50 [15]	GI50 [16]	GI50 [17]	GI50 [18]	GI50 [19]	GI50 [20]
CCOn1c(C2(CC3CCN(C(=O)c4ccccc4)CC3)OCCO2)cc2ccccc21	16.3 µM (inactive)	15.8 µM (inactive)	10.9 µM (inactive)	18.9 µM (inactive)	15.2 µM (inactive)	17.4 µM (inactive)	19.4 µM (inactive)	14.6 µM (inactive)	16.9 µM (inactive)	16.4 µM (inactive)	19.3 µM (inactive)	18.1 µM (inactive)	16.8 µM (inactive)	22.5	6.27 µM (inactive)	15.5 µM (inactive)	19.3 µM (inactive)	0.084 µM (active)	15.7 µM (inactive)	–
CC(=O)N1N=C(c2c(O)ccc3ccccc23)CC1C(=O)c1ccco1 (centres undefined)	34.3 µM (inactive)	20.4 µM (inactive)	52.7 µM (inactive)	39.8 µM (inactive)	36 µM (inactive)	25.1 µM (inactive)	18.4 µM (inactive)	33 µM (inactive)	28.2 µM (inactive)	17.7 µM (inactive)	28.2 µM (inactive)	47.4 µM (inactive)	16.6 µM (inactive)	37.9	13.6 µM (inactive)	18.4 µM (inactive)	48.6 µM (inactive)	77.1 µM (inactive)	–	–
CCOC(=O)c1nc2ccccc2nc1Oc1cc(OC)c(OC)c(OC)c1	32.6 µM (inactive)	> 100 µM (inactive)	47.6 µM (inactive)	> 100 µM (inactive)	> 100 µM (inactive)	–	> 100 µM (inactive)	46.9 µM (inactive)	> 100 µM (inactive)	> 100 µM (inactive)	83.4 µM (inactive)	> 100 µM (inactive)	90.2 µM (inactive)	> 100	> 100 µM (inactive)	35 µM (inactive)	–	–	> 100 µM (inactive)	> 100 µM (inactive)
COc1ccc(C2=C(N)c3c(OC)cccc3C2=O)cc1	64.9 µM (inactive)	> 100 µM (inactive)	> 10 µM (inactive)	> 100 µM (inactive)	> 100 µM (inactive)	9.66 µM (inactive)	48.6 µM (inactive)	> 10 µM (inactive)	–	> 100 µM (inactive)	–	> 100 µM (inactive)	> 100 µM (inactive)	> 100	> 100 µM (inactive)	96.6 µM (inactive)	> 100 µM (inactive)	> 100 µM (inactive)	99.5 µM (inactive)	> 100 µM (inactive)
Clc1ccccc1-c1nnc2c(-c3ccccc3)nc3ccccc3n12	> 100 µM (inactive)	> 100 µM (inactive)	> 100 µM (inactive)	5.93 µM (inactive)	> 100 µM (inactive)	13 µM (inactive)	> 100 µM (inactive)	> 100 µM (inactive)	> 100 µM (inactive)	> 100 µM (inactive)	–	> 100 µM (inactive)	> 100 µM (inactive)	> 100	45.2 µM (inactive)	> 100 µM (inactive)	> 100 µM (inactive)	> 100 µM (inactive)	> 100 µM (inactive)	54.5 µM (inactive)
CCN(CC)C1Oc2cc3c(cc2C(c2cccc(OC)c2OC)C1C)OCO3 (centres undefined)	4.33 µM (inactive)	2.79 µM (inactive)	–	3.42 µM (inactive)	–	2.23 µM (inactive)	3.4 µM (inactive)	3.22 µM (inactive)	4.46 µM (inactive)	2.7 µM (inactive)	4.13 µM (inactive)	3.23 µM (inactive)	6.07 µM (inactive)	3.93	0.729 µM (active)	13.3 µM (inactive)	4.53 µM (inactive)	2.05 µM (inactive)	3.66 µM (inactive)	1.88 µM (inactive)
CCN(CC)CCC(=O)c1ccc(Sc2ccc(F)cc2)cc1	16 µM (inactive)	18.2 µM (inactive)	–	21.2 µM (inactive)	20.1 µM (inactive)	17 µM (inactive)	17.2 µM (inactive)	18.3 µM (inactive)	> 100 µM (inactive)	18.8 µM (inactive)	16.1 µM (inactive)	18.9 µM (inactive)	21.1 µM (inactive)	17.3	12.9 µM (inactive)	16.9 µM (inactive)	23.3 µM (inactive)	16 µM (inactive)	17.4 µM (inactive)	20.1 µM (inactive)
c1ccc(C2SCc3nc4cc5ccccc5cc4n32)cc1 (centres undefined)	> 100 µM (inactive)	> 100 µM (inactive)	57.3 µM (inactive)	> 100 µM (inactive)	89.3 µM (inactive)	> 100 µM (inactive)	> 100 µM (inactive)	> 100 µM (inactive)	> 100 µM (inactive)	> 100 µM (inactive)	–	> 100 µM (inactive)	> 100 µM (inactive)	> 100	> 100 µM (inactive)	> 100 µM (inactive)	> 100 µM (inactive)	> 100 µM (inactive)	> 100 µM (inactive)	–
COc1ccc(C2SCC(=O)N2c2ccc(-n3c(-c4ccccc4)nc4ccccc4c3=O)cc2)cc1 (centres undefined)	> 100 µM (inactive)	> 100 µM (inactive)	46.7 µM (inactive)	21.6 µM (inactive)	> 100 µM (inactive)	–	> 100 µM (inactive)	> 100 µM (inactive)	> 100 µM (inactive)	> 100 µM (inactive)	36.4 µM (inactive)	> 100 µM (inactive)	6.95 µM (inactive)	48.5	45 µM (inactive)	> 100 µM (inactive)	73.3 µM (inactive)	> 100 µM (inactive)	> 100 µM (inactive)	> 100 µM (inactive)
CCNC(=S)Nc1c(C#N)c2n(c1C(=O)OCC)CCCCC2	> 100 µM (inactive)	> 100 µM (inactive)	42.3 µM (inactive)	> 100 µM (inactive)	> 100 µM (inactive)	33.1 µM (inactive)	30.9 µM (inactive)	> 100 µM (inactive)	–	–	–	> 100 µM (inactive)	> 100 µM (inactive)	> 100	> 100 µM (inactive)	> 100 µM (inactive)	> 100 µM (inactive)	> 100 µM (inactive)	> 100 µM (inactive)	> 100 µM (inactive)
CC(=O)/C(=C\I)c1ccccc1	2.26 µM (inactive)	2.26 µM (inactive)	2.45 µM (inactive)	1.69 µM (inactive)	–	1.66 µM (inactive)	1.83 µM (inactive)	–	15.7 µM (inactive)	1.7 µM (inactive)	–	3.38 µM (inactive)	2.6 µM (inactive)	1.83	1.49 µM (inactive)	1.85 µM (inactive)	13.6 µM (inactive)	21.2 µM (inactive)	1.67 µM (inactive)	1.08 µM (active)
